Data as given in US7491794B2, “Macrocyclic compounds as inhibitors of viral replication” (Intermune, Inc., priority 2003, dated 2009).

Tests used:
NS3-NS4A protease = biological target: T1, NS3-NS4A protease (Hepatitis C virus genotype 1a, UniProt P27958); assay: NS3-NS4A protease assay (NS3 inhibition assay, RETS1 substrate), Section B; assay type: biochemical; settings: read-out: NS3-NS4A IC50
T1 construct: Recombinant E. coli or Baculovirus full-length NS3 was diluted to 3.33 μM with assay buffer; made in house; host or cells: E. coli or baculovirus (BV) system
How it was run: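 Kinetic fluorescence read (335 nm excitation, 495 nm emission, 30 min) of RETS1 cleavage by NS3/NS4A-2 complex, 2 nM E. coli or 3 nM baculovirus NS3, after 10 min room-temperature compound pre-incubation. Four-parameter-fit IC50s converted to Ki by Cheng–Prusoff, Ki=IC50/(1+[S]/Km).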

[1] = test system: HCV sub-genomic replicon, GS4.3; assay: Quantitation by ELISA of NPTII in the HCV sub-genomic replicon, GS4.3, Section B; assay type: cell-based; settings: Hepatitis C virus; GS4.3 cells, 72 h incubation; read-out: Replicon EC50
Source text: Quantitation by ELISA of the Selectable Marker Protein, Neomycin Phosphotransferase II (NPTII) in the HCV Sub-Genomic Replicon, GS4.3
The HCV sub-genomic replicon (1377/NS3-3′, accession No. AJ242652), stably maintained in HuH-7 hepatoma cells, was created by Lohmann et al. Science 285: 110-113 (1999). The replicon-containing cell culture, designated GS4.3, was obtained from Dr. Christoph Seeger of the Institute for Cancer Research, Fox Chase Cancer Center, Philadelphia, Pa.
GS4.3 cells were maintained at 37° C., 5% CO2, in DMEM (Gibco 11965-092) supplemented with L-glutamine 200 mM (100×) (Gibco25030-081), non-essential amino acids (NEAA)(Biowhittaker 13-114E), heat-inactivated (HI) Fetal Bovine Serum(FBS)(Hyclone SH3007.03) and 750 μg/ml geneticin (G418)(Gibco 10131-035). Cells were sub-divided 1:3 or 4 every 2-3 days.
24 hours prior to the assay, GS4.3 cells were collected, counted, and plated in 96-well plates (Costar 3585) at 7500 cells/well in 100 μl standard maintenance medium (above) and incubated in the conditions above. To initiate the assay, culture medium was removed, cells were washed once with PBS (Gibco 10010-023) and 90 μl Assay Medium (DMEM, L-glutamine, NEAA, 10% HI FBS, no G418) was added. Inhibitors were made as a 10× stock in Assay Medium, (3-fold dilutions from 10 μM to […] final concentration, final DMSO concentration 1%), 10 μl were added to duplicate wells, plates were rocked to mix, and incubated as above for 72 h.
An NPTII ELISA kit was obtained from AGDIA, Inc. (Compound direct ELISA test system for Neomycin Phosphotransferase II, PSP 73000/4800). Manufacturer's instructions were followed, with some modifications. 10×PEB-1 lysis buffer was made up to include 500 μM PMSF (Sigma P7626, 50 mM stock in isopropanol). After 72 h incubation, cells were washed once with PBS and 150 μl PEB-1 with PMSF was added per well. Plates were agitated vigorously for 15 minutes, room temperature, then frozen at −70° C. Plates were thawed, lysates were mixed thoroughly, and 100 μl were applied to an NPTII Elisa plate. A standard curve was made. Lysate from DMSO-treated control cells was pooled, serially diluted with PEB-1 with PMSF, and applied to duplicate wells of the ELISA plate, in a range of initial lysate amount of 150u1-2.5 ul. In addition, 100 μl buffer alone was applied in duplicate as a blank. Plates were sealed and gently agitated at room temperature for 2 h. Following capture incubation, the plates were washed 5×300 μl with PBS-T (0.5% Tween-20, PBS-T was supplied in the ELISA kit). For detection, a 1× dilution of enzyme conjugate diluent MRS-2 (5×) was made in PBS-T, into which 1:100 dilutions of enzyme conjugates A and B were added, as per instructions. Plates were resealed, and incubated with agitation, covered, room temperature, for 2 h. The washing was then repeated and 100 μl of room temperature TMB substrate was added. After approximately 30 minutes incubation (room temperature, agitation, covered), the reaction was stopped with 50 μl 3M sulfuric acid. Plates were read at 450 nm on a Molecular Devices Versamax plate reader.
Inhibitor effect was expressed as a percentage of DMSO-treated control signal, and inhibition curves were calculated using a 4-parameter equation: y=A+((B−A)/(1+((C/x)^D))), where C is half-maximal activity or EC50.

T1 sequence (P27958 1027-1657): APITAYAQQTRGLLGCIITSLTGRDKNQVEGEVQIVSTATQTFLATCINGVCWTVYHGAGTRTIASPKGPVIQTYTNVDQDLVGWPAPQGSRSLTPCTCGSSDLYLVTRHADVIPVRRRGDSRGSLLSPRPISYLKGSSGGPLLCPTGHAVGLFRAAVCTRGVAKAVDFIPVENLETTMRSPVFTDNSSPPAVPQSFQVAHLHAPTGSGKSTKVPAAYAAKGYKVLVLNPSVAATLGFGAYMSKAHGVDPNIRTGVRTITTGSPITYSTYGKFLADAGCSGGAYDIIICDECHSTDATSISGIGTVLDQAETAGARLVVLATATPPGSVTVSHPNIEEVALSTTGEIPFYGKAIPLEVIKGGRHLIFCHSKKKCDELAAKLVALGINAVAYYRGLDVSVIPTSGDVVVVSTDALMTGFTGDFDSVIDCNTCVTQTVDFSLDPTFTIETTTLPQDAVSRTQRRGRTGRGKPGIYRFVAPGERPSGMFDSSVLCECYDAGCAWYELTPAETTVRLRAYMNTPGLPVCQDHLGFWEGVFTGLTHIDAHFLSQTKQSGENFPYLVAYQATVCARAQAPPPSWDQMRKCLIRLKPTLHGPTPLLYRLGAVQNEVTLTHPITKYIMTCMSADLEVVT

SMILES | IC50 (NS3-NS4A protease) [nM] | EC50 [1] [nM]
COCC1c2cccc(F)c2CCN1C(=O)O[C@@H]1CC2C(=O)N[C@]3(C(=O)O)C[C@H]3/C=C\CCCCC[C@H](NC(=O)OC3CCCC3)C(=O)N2C1 (stereo partly drawn) [AR00365381, (1S,4R,6S,14S,18R)-14-Cyclopentyloxycarbonylamino-18-(5-fluoro-1-methoxymethyl-3,4-dihydro-1H-isoquinoline-2-carbonyloxy)-2,15-dioxo-3,16-diaza-tricyclo[14.3.0.0^4,6]nonadec-7-ene-4-carboxylic acid] | < 1000 | < 1000
CC(C)(C)NC(=O)N[C@H]1CCCCC/C=C\[C@@H]2C[C@@]2(C(=O)O)NC(=O)[C@@H]2C[C@@H](OC(=O)N3CCc4ccccc4C3)CN2C1=O [AR00294377, (1S,4R,6S,14S,18R)-14-(3-tert-Butyl-ureido)-18-(3,4-dihydro-1H-isoquinoline-2-carbonyloxy)-2,15-dioxo-3,16-diaza-tricyclo[14.3.0.0^4,6]nonadec-7-ene-4-carboxylic acid] | < 1000 | < 10000
O=C(N[C@H]1CCCCC/C=C\[C@@H]2C[C@@]2(C(=O)NS(=O)(=O)C2CC2)NC(=O)[C@@H]2C[C@@H](OC(=O)N3CCc4ccccc4C3)CN2C1=O)OC1CCCC1 [AR00282131, (1S,4R,6S,14S,18R)-3,4-Dihydro-1H-isoquinoline-2-carboxylic acid 14-cyclopentyloxycarbonylamino-4-cyclopropanesulfonylaminocarbonyl-2,15-dioxo-3,16-diaza-tricyclo[14.3.0.0^4,6]nonadec-7-en-18-yl ester] | < 100 | < 100
CC(C)(C)OC(=O)N[C@H]1CCCCC/C=C\[C@@H]2C[C@@]2(C(=O)NS(=O)(=O)C2CC2)NC(=O)[C@@H]2C[C@@H](OC(=O)N3Cc4cccc(F)c4C3)CN2C1=O [AR00334191, (1S,4R,6S,14S,18R)-4-Fluoro-1,3-dihydro-isoindole-2-carboxylic acid 14-tert-butoxycarbonylamino-4-cyclopropanesulfonylaminocarbonyl-2,15-dioxo-3,16-diaza-tricyclo[14.3.0.0^4,6]nonadec-7-en-18-yl ester] | < 100 | < 100
O=C(NC1CCCC1)N[C@H]1CCCCC/C=C\[C@@H]2C[C@@]2(C(=O)O)NC(=O)[C@@H]2C[C@@H](OC(=O)N3CCc4cccc(C(F)(F)F)c4C3)CN2C1=O [AR00304078, (1S,4R,6S,14S,18R)-14-(3-Cyclopentyl-ureido)-2,15-dioxo-18-(8-trifluoromethyl-3,4-dihydro-1H-isoquinoline-2-carbonyloxy)-3,16-diaza-tricyclo[14.3.0.0^4,6]nonadec-7-ene-4-carboxylic acid] | < 100 | < 1000
COCC1c2ccc(OC)cc2CCN1C(=O)O[C@@H]1CC2C(=O)N[C@]3(C(=O)NS(=O)(=O)C4CC4)C[C@H]3/C=C\CCCCC[C@H](NC(=O)OC(C)(C)C)C(=O)N2C1 (stereo partly drawn) [AR00334339, (1S,4R,6S,14S,18R)-6-Methoxy-1-methoxymethyl-3,4-dihydro-1H-isoquinoline-2-carboxylic acid 14-tert-butoxycarbonylamino-4-cyclopropanesulfonylaminocarbonyl-2,15-dioxo-3,16-diaza-tricyclo[14.3.0.0^4,6]nonadec-7-en-18-yl ester] | < 100 | < 100
CC(C)(C)OC(=O)N[C@H]1CCCCC/C=C\[C@@H]2C[C@@]2(C(=O)NS(=O)(=O)C2CC2)NC(=O)[C@@H]2C[C@@H](OC(=O)N3Cc4ccccc4C3)CN2C1=O [AR00294381, (1S,4R,6S,14S,18R)-1,3-Dihydro-isoindole-2-carboxylic acid 14-tert-butoxycarbonylamino-4-cyclopropanesulfonylaminocarbonyl-2,15-dioxo-3,16-diaza-tricyclo[14.3.0.0^4,6]nonadec-7-en-18-yl ester] | < 100 | < 100
C[C@@H]1CN(C(=O)O[C@@H]2C[C@H]3C(=O)N[C@]4(C(=O)NS(=O)(=O)C5CC5)C[C@H]4/C=C\CCCCC[C@H](NC(=O)OC(C)(C)C)C(=O)N3C2)Cc2ccccc21 [AR00333463, (1S,4R,6S,14S,18R)-4S-Methyl-3,4-dihydro-1H-isoquinoline-2-carboxylic acid 14-tert-butoxycarbonylamino-4-cyclopropanesulfonylaminocarbonyl-2,15-dioxo-3,16-diaza-tricyclo[14.3.0.0^4,6]nonadec-7-en-18-yl ester] | < 100 | < 100
O=C(N[C@H]1CCCCC/C=C\[C@@H]2C[C@@]2(C(=O)O)NC(=O)[C@@H]2C[C@@H](OC(=O)N3CCc4ccccc4C3)CN2C1=O)O[C@@H]1CCOC1 [AR00304127, (1S,4R,6S,14S,18R)-18-(3,4-Dihydro-1H-isoquinoline-2-carbonyloxy)-2,15-dioxo-14-(tetrahydro-furan-3R-yloxycarbonylamino)-3,16-diaza-tricyclo[14.3.0.0^4,6]nonadec-7-ene-4-carboxylic acid] | < 1000 | < 10000
CC(C)(C)OC(=O)N[C@H]1CCCCC/C=C\[C@@H]2C[C@@]2(C(=O)NS(=O)(=O)C2CC2)NC(=O)[C@@H]2C[C@@H](OC(=O)N3Cc4cccc(N)c4C3)CN2C1=O [AR00334385, (1S,4R,6S,14S,18R)-4-Amino-1,3-dihydro-isoindole-2-carboxylic acid 14-tert-butoxycarbonylamino-4-cyclopropanesulfonylaminocarbonyl-2,15-dioxo-3,16-diaza-tricyclo[14.3.0.0^4,6]nonadec-7-en-18-yl ester] | < 100 | < 100
CC(C)(C)OC(=O)N[C@H]1CCCCC/C=C\[C@@H]2C[C@@]2(C(=O)NS(=O)(=O)C2CC2)NC(=O)[C@@H]2C[C@@H](OC(=O)N3CCc4ccccc4C3CN3CCCCC3)CN2C1=O (stereo partly drawn) [AR00311815, (1S,4R,6S,14S,18R)-1-Piperidin-1-ylmethyl-3,4-dihydro-1H-isoquinoline-2-carboxylic acid 14-tert-butoxycarbonylamino-4-cyclopropanesulfonylaminocarbonyl-2,15-dioxo-3,16-diaza-tricyclo[14.3.0.0^4,6]nonadec-7-en-18-yl ester] | < 100 | < 1000
CC(C)(C)OC(=O)N[C@H]1CCCCC/C=C\[C@@H]2C[C@@]2(C(=O)O)NC(=O)[C@@H]2C[C@@H](OC(=O)N3Cc4ccc(Cl)cc4C3)CN2C1=O [AR00315998, (1S,4R,6S,14S,18R)-14-tert-Butoxycarbonylamino-18-(5-chloro-1,3-dihydro-isoindole-2-carbonyloxy)-2,15-dioxo-3,16-diaza-tricyclo[14.3.0.0^4,6]nonadec-7-ene-4-carboxylic acid] | < 1000 | < 10000
COc1ccc2[nH]c3c(c2c1)CCN(C(=O)O[C@@H]1C[C@H]2C(=O)N[C@]4(C(=O)O)C[C@H]4/C=C\CCCCC[C@H](NC(=O)OC(C)(C)C)C(=O)N2C1)C3 [AR00320577, (1S,4R,6S,14S,18R)-14-tert-Butoxycarbonylamino-18-(6-methoxy-1,3,4,9-tetrahydro-b-carboline-2-carbonyloxy)-2,15-dioxo-3,16-diaza-tricyclo[14.3.0.0^4,6]nonadec-7-ene-4-carboxylic acid] | < 1000 | < 10000
